Values quoted from earlier work as cited in patent US20080280861A1, “Method of Female Contraception and a Kit For Use Therein” (PANTARHEI BIOSCIENCE B.V., priority 2004, published 2008).

Conditions: relative to levonorgestrel dosage; known in the art

Row | Structure (SMILES) | Conversion factor
1 | CC(=O)[C@H]1CC[C@H]2[C@@H]3C=CC4=CC(=O)CC[C@@]4(C)[C@@H]3CC[C@]12C [Dydrogesterone] | 133
2 | C[C@]12CCC(=O)C=C1[C@@H]1C[C@@H]1[C@H]1[C@@H]3[C@@H]4C[C@@H]4[C@@]4(CCC(=O)O4)[C@@]3(C)CC[C@@H]12 [Drospirenone] | 20
3 | C#C[C@]1(O)CC[C@H]2[C@@H]3CCC4=CC(=O)CC[C@@H]4[C@H]3CC[C@@]21C [Norethisterone] | 7
4 | C#C[C@]1(OC(C)=O)CC[C@H]2[C@@H]3CCC4=CC(=NO)CC[C@@H]4[C@H]3CC[C@@]21CC (mixture of isomers) [Norgestimate] | 1.7
